In ChEMBL document CHEMBL2390902, “Discovery of 1-(1,3,5-triazin-2-yl)piperidine-4-carboxamides as inhibitors of soluble epoxide hydrolase” (Bioorg Med Chem Lett, 2013):

Columns and labels:
[1] = molecular target: T1, Bifunctional epoxide hydrolase 2 (Homo sapiens, UniProt P34913)
T1 sequence (P34913 whole entry): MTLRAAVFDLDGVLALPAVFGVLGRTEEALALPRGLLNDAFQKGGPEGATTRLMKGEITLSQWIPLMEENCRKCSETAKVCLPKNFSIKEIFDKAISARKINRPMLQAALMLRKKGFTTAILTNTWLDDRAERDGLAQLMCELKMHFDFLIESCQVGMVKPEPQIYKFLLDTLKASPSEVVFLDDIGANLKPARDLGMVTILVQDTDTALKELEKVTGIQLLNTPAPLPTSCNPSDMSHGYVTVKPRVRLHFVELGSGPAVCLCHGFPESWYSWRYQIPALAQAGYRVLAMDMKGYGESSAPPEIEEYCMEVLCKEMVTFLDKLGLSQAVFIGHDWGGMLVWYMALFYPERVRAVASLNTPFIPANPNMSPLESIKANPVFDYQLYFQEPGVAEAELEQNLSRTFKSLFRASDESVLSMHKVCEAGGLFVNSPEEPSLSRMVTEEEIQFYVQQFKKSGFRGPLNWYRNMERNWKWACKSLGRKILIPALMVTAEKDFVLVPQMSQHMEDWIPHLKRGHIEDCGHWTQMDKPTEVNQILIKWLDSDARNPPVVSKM
Description: Inhibition of human soluble epoxide hydrolase using PHOME as substrate assessed as formation of 6-methoxy-2-naphthaldehyde incubated for 10 mins prior to substrate addition measured with in 30 mins by fluorescence assay

Cytochrome P450 2C9 = Cytochrome P450 2C9 (Homo sapiens, UniProt P11712)
Chain of Cytochrome P450 2C9 (P11712 whole entry): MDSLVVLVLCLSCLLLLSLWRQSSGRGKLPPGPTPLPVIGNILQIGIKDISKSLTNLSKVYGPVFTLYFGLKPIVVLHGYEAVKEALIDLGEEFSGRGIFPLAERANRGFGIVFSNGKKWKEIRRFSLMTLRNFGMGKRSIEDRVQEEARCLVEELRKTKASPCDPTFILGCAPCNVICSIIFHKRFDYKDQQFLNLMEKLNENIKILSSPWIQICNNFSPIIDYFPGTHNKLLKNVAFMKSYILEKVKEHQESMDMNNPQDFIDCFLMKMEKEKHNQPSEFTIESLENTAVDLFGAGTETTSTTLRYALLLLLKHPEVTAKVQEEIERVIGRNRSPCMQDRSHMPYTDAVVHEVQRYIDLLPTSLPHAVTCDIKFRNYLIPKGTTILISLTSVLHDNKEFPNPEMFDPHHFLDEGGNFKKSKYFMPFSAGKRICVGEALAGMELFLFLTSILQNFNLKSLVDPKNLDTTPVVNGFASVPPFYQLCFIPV
Description: Inhibition of CYP2C9 (unknown origin)

[2] = molecular target: T1, Bifunctional epoxide hydrolase 2; remark: listed apart in the source
Description: Inhibition of human soluble epoxide hydrolase overexpressed in HEK293F cells using EET as substrate assessed as formation of DHET incubated for 30 mins prior to substrate addition measured after 60 mins by ELISA

[3] = Plasma clearance in rat at 1 mg/kg, iv; type: ADME, organism-based; set-up: dose 1 mg/kg, route intravenous
[4] = Fraction unbound in rat plasma; type: ADME, cell-free

| Compound | IC50 [1] | IC50 (Cytochrome P450 2C9) | IC50 [2] | clearance [3] | fraction unbound [4] |
| --- | --- | --- | --- | --- | --- |
| CNc1nc(C)cc(N2CCC(C(=O)NCc3ccccc3C(F)(F)F)CC2)n1 | 40 nM | > 25000 nM |  |  |  |
| CNc1nc(C)nc(N2CCC(C(=O)NCc3ccccc3OC)CC2)n1 | 1600 nM | > 25000 nM |  |  |  |
| CNc1nc(C)nc(N2CCC(C(=O)NCc3ccc(OC(F)(F)F)cc3)CC2)n1 | 400 nM | > 25000 nM |  |  |  |
| CNc1nc(N2CCC(C(=O)NCc3ccccc3C(F)(F)F)CC2)nc(N2CCN(C)CC2)n1 |  |  |  | 46 mL/min/kg |  |
| CNc1nc(N(C)CCN(C)C)nc(N2CCC(C(=O)NCc3ccccc3C(F)(F)F)CC2)n1 | 80 nM | 17000 nM |  | 140 mL/min/kg |  |
| CNc1cc(C)nc(N2CCC(C(=O)NCc3ccccc3C(F)(F)F)CC2)c1 | 1590 nM | > 25000 nM |  |  |  |
| CNc1nc(NC)nc(N2CCC(C(=O)NCc3ccccc3C(F)(F)F)CC2)n1 | 20 nM | 25000 nM | 100 nM | 79 mL/min/kg |  |
| CNc1nc(C)nc(N2CCC(C(=O)NCc3cccc(OC(F)(F)F)c3)CC2)n1 | 630 nM | > 25000 nM |  |  |  |
| CNc1cc(N2CCC(C(=O)NCc3ccccc3C(F)(F)F)CC2)cc(C)n1 | 126 nM | > 25000 nM |  |  |  |
| CNc1nc(C)nc(N2CCC(C(=O)NCc3ccccc3C)CC2)n1 | 200 nM | > 25000 nM |  |  |  |
| CNc1cc(C)cc(N2CCC(C(=O)NCc3ccccc3C(F)(F)F)CC2)c1 | 32 nM | 2000 nM |  |  |  |
| CNc1nc(C)nc(N2CCC(C(=O)NCc3ccccc3)CC2)n1 | 200 nM | > 25000 nM |  |  |  |
| CNc1nc(C)nc(N2CCC(C(=O)NCc3ccccc3C#N)CC2)n1 | 80 nM | > 25000 nM |  |  |  |
| CNc1cc(C)nc(N2CCC(C(=O)NCc3ccccc3C(F)(F)F)CC2)n1 | 160 nM | > 25000 nM |  |  |  |

The next lines start with the values.

| IC50 [1] | IC50 (Cytochrome P450 2C9) | IC50 [2] | clearance [3] | fraction unbound [4] | Compound |
| --- | --- | --- | --- | --- | --- |
| 1 nM | 1800 nM | 1 nM | 27 mL/min/kg |  | COCCNc1nc(C)nc(N2CCC(C(=O)NCc3ccccc3C(F)(F)F)CC2)n1 |
| 1 nM | 63 nM |  |  |  | CNc1nc(C2CCCCC2)nc(N2CCC(C(=O)NCc3ccccc3C(F)(F)F)CC2)n1 |
| 1 nM | 400 nM | 3 nM |  |  | Cc1nc(N2CCOCC2)nc(N2CCC(C(=O)NCc3ccccc3C(F)(F)F)CC2)n1 |
| 3 nM | > 25000 nM | 50 nM |  |  | CNc1nc(C)nc(N2CCC(C(=O)NCc3ccc(F)cc3C(F)(F)F)CC2)n1 |
| 1 nM | > 25000 nM | 3 nM | 44 mL/min/kg |  | CNc1nc(C)nc(N2CCC(C(=O)NCc3ccccc3OC(F)(F)F)CC2)n1 |
| 1 nM | 400 nM | 10 nM |  |  | Cc1nc(NC(C)C)nc(N2CCC(C(=O)NCc3ccccc3C(F)(F)F)CC2)n1 |
| 3 nM | 25000 nM | 100 nM | 51 mL/min/kg |  | CNc1nc(C)nc(N2CCC(C(=O)NCc3ccccc3C(F)(F)F)CC2)n1 |
| 10 nM | 11000 nM | 100 nM | 61 mL/min/kg |  | CNc1cc(C)cc(N2CCC(C(=O)NCc3ccccc3C(F)(F)F)CC2)n1 |
| 1 nM | 1800 nM | 63 nM | 3 mL/min/kg | 0.015 | CNc1nc(-c2ccccc2)nc(N2CCC(C(=O)NCc3ccccc3C(F)(F)F)CC2)n1 |
| 1 nM | > 25000 nM | 2 nM | 7 mL/min/kg |  | CNc1nc(C)nc(N2CCC(C(=O)NCc3ccc(OC)cc3C(F)(F)F)CC2)n1 |
| 4 nM | 9600 nM | 80 nM |  |  | CCc1nc(NC)nc(N2CCC(C(=O)NCc3ccccc3C(F)(F)F)CC2)n1 |
| 5 nM | 1000 nM | 80 nM | 73 mL/min/kg |  | CNc1cc(N2CCC(C(=O)NCc3ccccc3C(F)(F)F)CC2)nc(C)n1 |
